This is an account of results in the RepoRT retention time repository (doi:10.1021/acs.analchem.1c00972).

Data set [1] can be described thus: RP, Waters ACQUITY UPLC BEH C18, 100 × 1 mm, 1.7 µm, 50 °C, 0.3 mL/min, estimated dead time 0.17 min; A: water + 0.1% formic acid + 20 mM ammonium formate; B: methanol + 0.1% formic acid + 20 mM ammonium formate; gradient (min/%B) 0/0 15/100 21/100 22/0 30/0. The settings on record: stereoisomer not certain.
Data set [2] is described as follows: RP, Waters ACQUITY UPLC BEH C18, 100 × 1 mm, 1.7 µm, 50 °C, 0.3 mL/min, estimated dead time 0.17 min; A: water + 10 mM ammonium bicarbonate; B: 10% water + 90% methanol + 10 mM ammonium bicarbonate; gradient (min/%B) 0/0 15/100 21/100 22/0 30/0. The settings on record: stereoisomer not certain.

Molecules are shown by their SMILES.

As for `O=c1c2cc(F)ccc2nc(-n2cncn2)n1-c1ccc(Cl)cc1Cl` [Fluquinconazole], the figures for the LC retention time in data set [1] and in data set [2] were 14.7 min and 15 min, respectively.
In the same order, the values of `CNC(=O)ON=CC(C)(C)SC` [Aldicarb] are 16.1 min and 16.4 min.
As to `CCC(C)C1OC2(C=CC1C)CC1CC(CC=C(C)C(OC3CC(OC)C(OC4CC(OC)C(NC(C)=O)C(C)O4)C(C)O3)C(C)C=CC=C3COC4C(O)C(C)=CC(C(=O)O1)C34O)O2` (stereo unspecified) [Eprinomectin B1a], the values for the LC retention time in data set [1] and in data set [2] were 17.9 min and 18.3 min, respectively.
Turning to `CC(NC(C)(C)C)C(=O)c1cccc(Cl)c1` (stereo unspecified) [Bupropion], the values for the LC retention time in data set [1] and in data set [2] were 10.5 min and 15.6 min, respectively.
The corresponding values for `Cc1ccnc(NS(=O)(=O)c2ccc(N)cc2)n1` [Sulfamerazine] are 7.14 min and 5.61 min.
`CCOC(=O)CCN(Cc1ccccc1)SN(C)C(=O)ON=C(C)SC` [Alanycarb]: the LC retention time is 15.5 min in data set [1] and 15.8 min in data set [2].
As to `CN1CCN=C(c2ccccc2)c2cc(Cl)ccc21` [Medazepam], the LC retention time in data set [1] is 11.4 min; in data set [2], 16.4 min.
Turning to `COc1ccc2c(c1)OC(O)C(=O)N2O` (stereo unspecified) [DIMBOA], the LC retention time is 8.5 min in data set [1] and 4.91 min in data set [2].
Take `CCCCCCCCSCCOCCO` [2(2(octylsulfanyl)ethoxy)ethanol]: the LC retention time is 16.5 min in data set [1] and 16.9 min in data set [2].
For the compound `COc1ccc(CCC(=O)c2c(O)cc(OC3OC(CO)C(O)C(O)C3OC3OC(C)C(O)C(O)C3O)cc2O)cc1O` (stereo unspecified) [Neohesperidin DC], the LC retention time is 11.5 min in data set [1] and 10.4 min in data set [2].
With `O=c1ccc2ccc(O)cc2o1` [Umbelliferone], the values for the LC retention time in data set [1] and in data set [2] were 8.73 min and 6.78 min, respectively.
Turning to `Cc1ccc(C=C2C(=O)C3(C)CCC2C3(C)C)cc1` (stereo unspecified) [4-Methylbenzylidene camphor], the LC retention time in data set [1] is 17.1 min; in data set [2], 17.4 min.
In the same order, the values of `COc1cc2c(cc1OC)C13CCN4CC5=CCOC6CC(=O)N2C1C6C5CC43` (stereo unspecified) [Brucine] are 8.1 min and 12.1 min.
The corresponding values for `O=C(Nc1ccccc1)c1ccccc1I` [Benodanil] are 12.7 min and 12.9 min.
The corresponding values for `OCCN1CCN(CCC=C2c3ccccc3Sc3ccc(C(F)(F)F)cc32)CC1` [Flupentixol] are 14.7 min and 17.3 min.
As for `CN1COCN(Cc2cnc(Cl)s2)C1=O`, the LC retention time in data set [1] was 9.42 min; in data set [2], 9.5 min.
Take `CCC12CCCN3CCc4c(n(c5ccccc45)C(O)(C(=O)OC)C1)C32` (stereo unspecified) [Vincamin]: the results for the LC retention time in data set [1] and in data set [2] were 9.43 min and 14.6 min, respectively.
The corresponding values for `COc1cc(C)c(C(=O)c2c(OC)ccc(Br)c2C)c(OC)c1OC` [Metrafenone] are 16 min and 16.4 min.
In the case of `CON=C(C(=O)OC)c1ccccc1COc1ccccc1C` [Kresoxim-methyl], the LC retention time in data set [1] was 15.4 min; in data set [2], 15.8 min.
`COC(=O)CC(O)(CCCC(C)(C)O)C(=O)OC1C(OC)=CC23CCCN2CCc2cc4c(cc2C13)OCO4` (stereo unspecified) [Homoharringtonine]: the LC retention time in data set [1] was 9.4 min; in data set [2], 14 min.
Regarding `COc1ccc(C(=O)c2ccccc2)c(O)c1` [Benzophenone-3], the figures for the LC retention time in data set [1] and in data set [2] were 15 min and 15.3 min, respectively.
In the same order, the values of `O=C1C=CCC2C3CCCN4CCCC(CN12)C34` (stereo unspecified) [Sophocarpine] are 5.39 min and 12.8 min.
With `COc1ccc(NC(=O)N(C)C)cc1Cl` [Metoxuron], the LC retention time in data set [1] is 10.6 min; in data set [2], 10.7 min.
